# Assay results reported in patent publication US10596223B2, “JNK inhibitor molecules for treatment of various diseases” (Xigen Inflammation Ltd., priority 2011, dated 2020).
# Square brackets hold non-standard residues; d marks the D form. Peptide text beside a SMILES is read from it.
# Experiments:
# [1] = system: THP1-PMA-differentiated macrophages; assay: LPS-induced cytokine and chemokine release in PMA differentiated THP1 macrophages (ELISA); assay type: cell-based, human
# Description: In the following the procedure will be set forth describing how the released amount of several human cytokines after ligand induced secretion from human cells (Blood, WBC, PBMC, purified primary lymphocytes, cell lines, . . . ) was measured.
# The technique used is a Sandwich ELISA, which allows measuring the amount of antigen between two layers of antibodies (i.e. capture and detection antibody). The antigen to be measured must contain at least two antigenic sites capable of binding to antibody, since at least two antibodies act in the sandwich. Either monoclonal or polyclonal antibodies can be used as the capture and detection antibodies in Sandwich ELISA systems. Monoclonal antibodies recognize a single epitope that allows fine detection and quantification of small differences in antigen. A polyclonal is often used as the capture antibody to pull down as much of the antigen as possible.
# The method may be used to determine the effect of the JNK inhibitors of the present invention in vitro/cell culture. At non toxic doses, compound efficacy is indicated by the decrease of the cytokine levels (the variation of optical density (absorbance at 450 nm)) as compared to non-treated samples and is monitored by ELISA. Results are express in ng/ml.
# In the following the procedure will be set forth describing how cytokine production from human PMA differentiated THP1 cells challenged by LPS for 6 h was induced in order to test the ability of JNK inhibitors of the present invention, in particular of a JNK inhibitor with SEQ ID NO: 172, to reduce stimulation-induced cytokine release. THP1 cells were stimulated ex-vivo by different ligands for the readout of cytokine release. At non toxic doses, JNK inhibitor efficacy is indicated by the decrease of the cytokine levels as compared to non-treated samples and is monitored by ELISA. The toxicity of the compound are evaluated by the reduction of a tretazolium salt (MTS) to formazan, giving a purple colour.
# a. Material • Cell Line: THP-1 (Ref TIB-202, ATCC, lot 57731475) • Culture medium, reagent and plates • RPMI (Ref 21875-091, Invitrogen) complemented with: • 10% FBS (Ref A15-151, PAA): decomplemented at 56° C., 30 min. • 10 mM Hepes (Ref H0887, Sigma) • 50 μM β-mercaptoethanol (Ref 63690, Fluka: stock at 14.3M): add 560 μl of 50 mM aliquots in PBS stocked at −20° C.) • 1 mM Sodium Pyruvate (Ref 58636, Sigma) • Penicilline (100 unit/ml)/Streptomycine (100 μg/ml) (Ref P4333, Sigma) • The RPMI medium is then filtrated with a […] (Ref SCGPU05RE, Millipore). • PBS 10× (Ref 70011, Invitrogen): diluted to 1× with sterile H2O • DMSO: Ref 41444, Fluka • PMA (phorbol 12-myristate 13-acetate, Ref P1585, Sigma, concentration 1 mM=616.8 ug/ml in DMSO at −20° C.). […]
# [2] = system: primary human T-cells; assay: IL2 secretion by primary human T-cells; assay type: cell-based
# Description: The JNK inhibitors used are indicated by their SEQ ID NO: 172 and 197.
# [3] = THP1 differentiated macrophages, LPS 6 h (10 ng/ml)
structure (smiles),measurement,setting,value
"CC(C)C[C@H](NC(=O)[C@H](CC(N)=O)NC(=O)[C@H](CC(C)C)NC(=O)[C@@H](NC(=O)[C@@H](C)NC(=O)[C@@H]1CCCN1C(=O)[C@H](CCCNC(=N)N)NC(=O)[C@@H](CCCCN)NC(=O)[C@@H]1CCCN1C(=O)[C@H](CCCNC(=N)N)NC(=O)[C@@H](CCCNC(=N)N)NC(=O)[C@H](CCCNC(=N)N)NC(=O)[C@H](CCCNC(=N)N)NC(=O)[C@H](CCC(N)=O)NC(=O)[C@@H](CCCNC(=N)N)NC(=O)[C@H](CCCNC(=N)N)NC(=O)[C@H](CCCCN)NC(=O)[C@H](CCCCN)NC(=O)[C@H](N)CCCNC(=N)N)[C@@H](C)O)C(=O)N[C@H](Cc1ccccc1)C(N)=O [SEQ ID NO: 172, rKKRrQRRrRPkRPaTLNLf] (H-[dR]KKR[dR]QRR[dR]RP[dK]RP[dA]TLNL[dF]-NH2; N-terminus assumed)","LPS-induced TNFα release, potency comparison",[1]; PMA differentiated macrophages,higher potency than D-TAT-IB1 (SEQ ID NO: 197) and L-TAT-IB1 (SEQ ID NO: 196)
same,"LPS-induced IL-6 release, potency comparison","[1]; PMA differentiated macrophages, LPS 6 h",higher potency than D-TAT-IB1 (SEQ ID NO: 197) and L-TAT-IB1 (SEQ ID NO: 196)
same,"LPS-induced IL6 release, potency comparison",[1]; [3],"higher potency than D-TAT-IB1 (SEQ ID NO: 197), dTAT (SEQ ID NO: 45) and SP 600125"
same,"LPS-induced TNFα release, potency comparison",[1]; [3],"higher potency than D-TAT-IB1 (SEQ ID NO: 197), dTAT (SEQ ID NO: 4.5) and SP 600125"
same,IL2 secretion in response to CD3/CD28 stimulation,[2],blocks IL2 secretion
same,IL2 secretion in response to PMA/Ionomycin,[2],blocks IL2 secretion
